The test system of data set [1] is TNF-α. In words: TNF-α production in LPS-stimulated human whole blood. The format is cell-based. The settings on record: LPS 4 h. The procedure:
Tumor Necrosis Factor Alpha (TNF-α)
This assay determines the effect of test compounds on the production of TNF-α in human whole blood. TNF-α assay is carried out as described by Armin hatzelmann and Christian Schudt (J Pharm Exp Ther 297, 261, 2001). Compounds are tested for their ability to inhibit the activity of TNF-α in human whole blood. The test compounds are pre-incubated for 15 minutes at 37° C. and then stimulated with Lipopolysaccharide (Salmonella abortus equi, 1 μg/ml) for 4 h at 37° C. in 5% CO2. The levels of TNF-α are estimated using Enzyme linked Immunosorbent assay performed in a 96 well format as per the procedure of the manufacturer (Cayman Chemical, Ann Arbor, USA).

For data set [2], the target named is T1, COX-2 (Homo sapiens, UniProt P35354).
T1 construct: incubation of human blood with lipopolysaccharide (LPS), which induces COX-2 production in the blood; endogenous in cells; host or cells: fresh human whole blood from volunteers, treated with aspirin and then LPS
T1 sequence (P35354 18-604): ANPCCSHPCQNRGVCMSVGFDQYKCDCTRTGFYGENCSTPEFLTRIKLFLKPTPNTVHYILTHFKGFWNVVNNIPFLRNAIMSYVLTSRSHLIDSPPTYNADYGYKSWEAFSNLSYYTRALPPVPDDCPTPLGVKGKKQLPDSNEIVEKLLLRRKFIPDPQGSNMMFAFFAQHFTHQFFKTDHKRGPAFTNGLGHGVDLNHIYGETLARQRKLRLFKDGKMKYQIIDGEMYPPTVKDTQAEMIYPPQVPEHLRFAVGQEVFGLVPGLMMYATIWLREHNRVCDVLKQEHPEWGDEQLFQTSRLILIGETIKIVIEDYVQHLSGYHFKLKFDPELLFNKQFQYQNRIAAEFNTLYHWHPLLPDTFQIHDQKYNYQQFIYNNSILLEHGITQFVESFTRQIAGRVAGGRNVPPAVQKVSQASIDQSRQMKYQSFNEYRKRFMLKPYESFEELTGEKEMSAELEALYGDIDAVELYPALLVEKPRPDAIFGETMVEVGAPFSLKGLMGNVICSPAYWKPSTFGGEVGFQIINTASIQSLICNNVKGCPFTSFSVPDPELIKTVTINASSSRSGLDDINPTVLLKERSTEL
In words: Human whole blood assay, COX-2 inhibition (PGE2 ELISA after LPS). The format is cell-based. The settings on record: 0.25 μM, LPS 24 h. The procedure:
In Vivo Evaluation of Cyclooxygenase-2 (COX-2) Inhibition Activity
The COX-2 inhibition activities of the compounds illustrated in the examples are determined by the following method.
Human whole blood provides a protein and cell rich milieu appropriate for the study of biochemical efficacy of anti-inflammatory compounds such as selective COX-2 inhibitors. […] This is correlating with the observation that COX-2 inhibitors have no effect on prostaglandin E2 (PGE2) production in normal blood. These inhibitors are active only after incubation of human blood with lipopolysaccharide (LPS), which induces COX-2 production in the blood.
Fresh blood is collected in tubes containing potassium EDTA by vein puncture from make volunteers. The subjects should have no apparent inflammatory conditions and not taken NSAIDs for at least 7 days prior to blood collection. Blood is treated with aspirin in vitro (10 μg/ml, at time zero) to inactivate COX-1, and then with LPS (10 μg/ml) along with test agents or vehicle. The blood is incubated for 24 h at 37° C., after which the tubes are centrifuged, the plasma is separated and stored at −80° C. (J. Pharmacol. Exp. Ther, 271, 1705, 1994; Proc. Natl. Acad. Sci. USA., 96, 7563, 1999). The plasma is assayed for PGE2 using Cayman ELISA kit as per the procedure outlined by the manufacturer (Cayman Chemicals, Ann Arbor, USA).
A general note: ELISA stands for enzyme-linked immunosorbent assay.

By melting point is commonly meant the temperature of the solid-liquid transition. Broadly, the inhibition is the relative decrease from the control value, in per cent. A high value points to strong suppression.

`CSc1nc(-c2ccccn2)n(-c2ccc(C)cc2)c(=O)c1C#N` [Example 34, 5-cyano-4-(methylthio)-1-(4-methylphenyl)-6-oxo-2-pyridin-2-yl-1,6-dihydropyrimidine] gave a melting point of 247 to 248 °C.

`Cc1ccc(-n2c(-c3ccc(S(C)(=O)=O)cc3)nc(S(C)(=O)=O)c(C(N)=O)c2=O)cc1` [Example 44, 5-carboxamido-1-(4-methylphenyl)-4-(methylsulfonyl)-2-[4-(methylsulfonyl)phenyl]-6-oxo-1,6-dihydropyrimidine] returned a melting point of 260 to 262 °C.

With `CCc1ccc(-n2c(-c3cccnc3)nc(SC)c(C#N)c2=O)cc1` [Example 38, 5-cyano-4-(methylthio)-1-(4-ethylphenyl)-6-oxo-2-pyridin-3-yl-1,6-dihydropyrimidine], the melting point fell in the range of 207 to 209 °C.

For the compound `COc1ccc(-n2c(-c3ccccn3)nc(SC)c(C#N)c2=O)cc1` [Example 31, 5-cyano-4-(methylthio)-1-(4-methoxyphenyl)-6-oxo-2-pyridin-2-yl-1,6-dihydropyrimidine], the melting point fell in the range of 246 to 253 °C. Moreover, in data set [1], testing at 0.1 µM gave an inhibition of 20.2%.

Turning to `CCc1ccc(-n2c(-c3ccccn3)nc(SC)c(C#N)c2=O)cc1` [Example 33, 5-cyano-4-(methylthio)-1-(4-ethylphenyl)-6-oxo-2-pyridin-2-yl-1,6-dihydropyrimidine], the melting point was in the range of 172 to 175 °C.

In turn, `CS(=O)(=O)c1ccc(-n2c(-c3ccc(F)cc3)nc(O)c(C#N)c2=O)cc1` [Example 52, 5-cyano-2-(4-fluorophenyl)-4-hydroxy-1-[4-(methylsulfonyl)phenyl]-6-oxo-1,6-dihydropyrimidine] came in with a melting point above 285 °C.

In turn, `CSc1nc(-c2ccccn2)n(-c2ccc(C)c(C)c2)c(=O)c1C#N` [Example 32, 5-cyano-4-(methylthio)-1-(3,4-dimethylphenyl)-6-oxo-2-pyridin-2-yl-1,6-dihydropyrimidine] had a melting point of 218 to 223 °C. This compound also displayed an inhibition at 0.1 µM in data set [1] of 17.9%.

`CCc1ccc(-n2c(-c3ccc(SC)cc3)nc(SC)c(C#N)c2=O)cc1` [Example 14, 5-cyano-1-(4-ethylphenyl)-4-(methylthio)-2-[4-(methylthio)phenyl]-6-oxo-1,6-dihydropyrimidine] gave a melting point of 223 to 225 °C. This compound showed an inhibition at 0.25 µM in data set [2] of 28.2%.

As to `Cc1ccc(-n2c(-c3ccc(S(C)(=O)=O)cc3)nc(N3CCNCC3)c(C(N)=O)c2=O)cc1` [Example 45, 5-carboxamido-1-(4-methylphenyl)-2-[4-(methylsulfonyl)phenyl]-6-oxo-4-piperazin-1-yl-1,6-dihydropyrimidine], the melting point fell in the range of 269 to 275 °C.

For `CSc1nc(-c2ccncc2)n(-c2ccc(C)cc2)c(=O)c1C#N` [Example 36, 5-cyano-4-(methylthio)-1-(4-methylphenyl)-6-oxo-2-pyridin-4-yl-1,6-dihydropyrimidine], the melting point was above 250 °C.

For the compound `CCOc1ccc(-n2c(-c3ccncc3)nc(SC)c(C#N)c2=O)cc1` [Example 35, 5-cyano-4-(methylthio)-1-(4-ethoxyphenyl)-6-oxo-2-pyridin-4-yl-1,6-dihydropyrimidine], the melting point is 201 to 204 °C.

Regarding `COc1cc(-n2c(-c3ccc(SC)cc3)nc(SC)c(C#N)c2=O)cc(OC)c1OC` [Example 13, 5-cyano-1-(3,4,5-trimethoxyphenyl)-4-(methylthio)-2-[4-(methylthio)phenyl]-6-oxo-1,6-dihydropyrimidine], the melting point was in the range of 192 to 195 °C. The inhibition at 0.25 µM in data set [2] is 33.5%.

In turn, `Cc1ccc(-n2c(-c3ccc(S(C)(=O)=O)cc3)nc(N3CCOCC3)c(C(N)=O)c2=O)cc1` [Example 47, 5-carboxamido-1-(4-methylphenyl)-2-[4-(methylsulfonyl)phenyl]-4-morpholin-4-yl-6-oxo-1,6-dihydropyrimidine] had a melting point of 226 to 228 °C.

With `Cc1ccc(-n2c(-c3ccc(S(C)(=O)=O)cc3)nc(O)c(C#N)c2=O)cc1C` [Example 53, 5-cyano-1-(3,4-dimethylphenyl)-4-hydroxy-2-[4-(methylsulfonyl)phenyl]-6-oxo-1,6-dihydropyrimidine], the melting point is above 285 °C.

The compound `Cc1ccc(-n2c(-c3ccc(S(C)(=O)=O)cc3)nc(S(C)(=O)=O)c(C(N)=O)c2=O)cc1C` [Example 51, 5-carboxamido-1-(3,4-dimethylphenyl)-4-(methylsulfonyl)-2-[4-(methylsulfonyl)phenyl]-6-oxo-1,6-dihydropyrimidine] yielded a melting point of 245 to 248 °C.

`CS(=O)(=O)c1ccc(-n2c(-c3ccc(F)cc3)nc(S(C)(=O)=O)c(C(N)=O)c2=O)cc1` [Example 48, 5-carboxamido-2-(4-fluorophenyl)-4-(methylsulfonyl)-1-[4-(methylsulfonyl)phenyl]-6-oxo-1,6-dihydropyrimidine] registered a melting point of 237 to 241 °C.

Take `COc1ccc(-n2c(-c3cccnc3)nc(SC)c(C#N)c2=O)cc1` [Example 40, 5-cyano-4-(methylthio)-1-(4-methoxyphenyl)-6-oxo-2-pyridin-3-yl-1,6-dihydropyrimidine]: the melting point fell in the range of 230 to 233 °C.

In the case of `CCCCc1ccc(-n2c(-c3ccc(SC)cc3)nc(SC)c(C#N)c2=O)cc1` [Example 24, 1-(4-n-butylphenyl)-5-cyano-4-(methylthio)-2-[4-(methylthio)phenyl]-6-oxo-1,6-dihydropyrimidine], the melting point was in the range of 138 to 141 °C.

On to `CSc1nc(-c2cccnc2)n(-c2ccc(C)c(C)c2)c(=O)c1C#N` [Example 39, 5-cyano-4-(methylthio)-1-(3,4-dimethylphenyl)-6-oxo-2-pyridin-3-yl-1,6-dihydropyrimidine], for which the melting point was above 250 °C.

For the compound `CSc1nc(-c2ccncc2)n(-c2ccc(C(C)C)cc2)c(=O)c1C#N` [Example 37, 5-cyano-4-(methylthio)-1-(4-isopropylphenyl)-6-oxo-2-pyridin-4-yl-1,6-dihydropyrimidine], the melting point was in the range of 173 to 175 °C.

As to `CSc1ccc(-c2nc(SC)c(C#N)c(=O)n2-c2ccc(C)cc2C)cc1` [Example 19, 5-cyano-1-(2,4-dimethylphenyl)-4-(methylthio)-2-[4-(methylthio)phenyl]-6-oxo-1,6-dihydropyrimidine], the melting point lay within 203 to 205 °C.

Compound `CNc1nc(-c2ccc(S(C)(=O)=O)cc2)n(-c2ccc(C)cc2)c(=O)c1C(N)=O` [Example 46, 5-carboxamido-4-(methylamino)-1-(4-methylphenyl)-2-[4-(methylsulfonyl)phenyl]-6-oxo-1,6-dihydropyrimidine] showed a melting point above 300 °C.

In turn, `CSc1nc(-c2ccccc2)n(-c2ccc(C)cc2)c(=O)c1C#N` [Example 23, 5-cyano-1-(4-methylphenyl)-4-(methylthio)-6-oxo-2-phenyl-1,6-dihydropyrimidine] yielded a melting point of 258 to 260 °C.

`CSc1ccc(-c2nc(SC)c(C#N)c(=O)n2-c2ccc(Br)cc2)cc1` [Example 15, 1-(4-bromophenyl)-5-cyano-4-(methylthio)-2-[4-(methylthio)phenyl]-6-oxo-1,6-dihydropyrimidine] showed a melting point of 213 to 215 °C. In data set [1], this compound returned an inhibition at 0.1 µM of 18.4%.

Compound `CSc1nc(-c2ccncc2)n(-c2ccc(F)cc2)c(=O)c1C#N` [Example 25, 5-cyano-1-(4-fluorophenyl)-4-(methylthio)-6-oxo-2-pyridin-4-yl-1,6-dihydropyrimidine] displayed a melting point of 301 to 303 °C. For the same compound, the inhibition at 1 µM in data set [1] (1 μM) was 59.6%.

The values are drawn from patent US7365069B2, “Pyrimidone derivatives” (Bexel Pharmaceuticals Inc., priority 2002, dated 2008).
